The values that follow come from patent US20040106545A1, “Compounds and methods for modulating cell adhesion” (priority 1996, published 2004).

The subject of data set [1] is HMVEC. It counts as cell-based, human. To be noted: 3 h. How it is done:
(§1) N—Ac-CHAVC-NH2 (SEQ ID NO:10) and the control peptide N—Ac-CHGVC-NH2 (SEQ ID NO:11) were evaluated for possible cytotoxic effects on human microvascular endothelial (HMVEC; Clonetics), human umbilical vein endothelial (HUVEC; ATCC #CRL-1730), IAFp2 (human fibroblast cell line; Institute Armand-Frapier, Montreal, Quebec), WI-38 (human fibroblast cell line; ATCC #CCL-75), MDA-MB231 (human breast cancer cell line; ATCC #HTB-26), and PC-3 (human prostate cancer cell line; ATCC #CRL-1435) cells utilizing the MTT assay (Plumb et al., Cancer Res. 49:4435-4440, 1989). Neither of the peptides was cytotoxic at concentrations up to and including 100 μM. Similarly, neither of the peptides was capable of inhibiting the proliferation of the above cell lines at concentrations up to 100 μM, as judged by ^3H-thymidine incorporation assays.

The subject of data set [2] is HUVEC. In kind it is cell-based, human. To be noted: 3 h. How it is done: as §1
Data set [3] has as its system IAFp2. It counts as cell-based, human. The settings on record: 3 h. The protocol:
as §1

In data set [4] the test system is MDA-MB231. It counts as cell-based, human. The settings on record: 3 h. The protocol: as §1
The subject of data set [5] is PC-3. In kind it is cell-based, human. The settings on record: 3 h. The protocol:
as §1

The test system of data set [6] is WI-38. It counts as cell-based, human. To be noted: 3 h. The protocol: as §1
The test system of data set [7] is MDA-MB231. Put plainly: Cytotoxicity, MTT assay, MDA-MB231. It counts as cell-based, human. The protocol: as §1
Data set [8] has as its system PC-3. Briefly: Cytotoxicity, MTT assay, PC-3. In kind it is cell-based, human. How it is done:
as §1
(Tetrazolium dyes change colour on reduction, which living cells bring about.)

The target of data set [9] is T1, chick N-cadherin (Gallus gallus, UniProt P10288).
T1 construct: expressed in transfected cells; host or cells: 3T3 fibroblasts (monolayer); rat post-natal day 2-3 cerebellar neurons plated on top
T1 sequence (P10288 165-912): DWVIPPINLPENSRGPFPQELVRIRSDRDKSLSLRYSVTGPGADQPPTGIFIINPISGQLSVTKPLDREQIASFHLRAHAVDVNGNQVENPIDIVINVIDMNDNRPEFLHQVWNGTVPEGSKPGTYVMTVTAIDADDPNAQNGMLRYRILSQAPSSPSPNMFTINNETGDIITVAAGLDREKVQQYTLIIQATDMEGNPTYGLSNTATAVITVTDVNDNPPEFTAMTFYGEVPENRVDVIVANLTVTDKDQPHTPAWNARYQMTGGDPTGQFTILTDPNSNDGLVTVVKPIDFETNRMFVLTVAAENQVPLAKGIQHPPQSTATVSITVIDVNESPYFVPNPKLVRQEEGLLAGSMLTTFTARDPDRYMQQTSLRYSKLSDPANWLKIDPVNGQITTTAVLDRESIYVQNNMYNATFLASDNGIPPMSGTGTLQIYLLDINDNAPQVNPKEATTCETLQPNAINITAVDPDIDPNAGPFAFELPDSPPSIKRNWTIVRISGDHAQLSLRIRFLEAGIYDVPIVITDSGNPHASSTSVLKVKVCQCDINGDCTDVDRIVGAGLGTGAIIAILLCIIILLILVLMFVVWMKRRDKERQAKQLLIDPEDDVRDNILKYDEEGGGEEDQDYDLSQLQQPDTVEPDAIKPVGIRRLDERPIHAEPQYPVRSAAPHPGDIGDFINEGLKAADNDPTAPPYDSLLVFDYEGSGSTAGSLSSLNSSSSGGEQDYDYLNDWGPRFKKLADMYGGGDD
Put plainly: Neurite outgrowth of rat cerebellar neurons on N-cadherin expressing 3T3 monolayers (Example 15). It counts as cell-based. The settings on record: Tables 8 and 9. The protocol:
Cell culture and neurite outgrowth assays. Co-cultures of cerebellar neurons on monolayers of control 3T3 cells and monolayers of transfected 3T3 cells that express physiological levels of chick N-cadherin or human L1 were established as previously described (Williams et al., Neuron 13:583-594, 1994). In brief, 80,000 3T3 cells (control and transfected) were plated into individual chambers of an eight-chamber tissue culture slide coated with polylysine and fibronectin and cultured in DMEM/10% FCS. After 24 hours, when confluent monolayers had formed, the medium was removed and 3000 cerebellar neurons isolated from post-natal day 2-3 rats were plated into each well in SATO media (Doherty et al., Nature 343:464-466, 1990) supplemented with 2% FCS. All of the test peptides were added immediately before the neurons as a 2× stock prepared in SATO/2% FCS. The co-cultures were maintained for 16-18 hours, at which time they were fixed and immunostained for GAP-43 which is present only in the neurons and delineates the neuritic processes. The mean length of the longest neurite per cell was measured for 150-200 neurons sampled in replicate cultures as previously described (Williams et al., Neuron 13:583-594, 1994). […] Dose-response curves were evaluated and the EC50 values determined.

Data set [10] has as its target T2, N-cadherin (Gallus gallus, UniProt P10288).
T2 construct: expressed in transfected cells; host or cells: 3T3 fibroblasts (monolayer)
T2 sequence (P10288 165-912): T1 sequence (P10288 165-912)
Briefly: Neurite outgrowth inhibition, rat neurons (Example 21). In kind it is cell-based. The settings on record: read-out: % Inhibition of neurite outgrowth; 250 μg/mL.

Data set [11] deals with chick embryonic chorioallantoic membranes. Put plainly: Chick chorioallantoic membrane angiogenesis assay. It counts as in vivo. To be noted: for Percent Inhibition of Angiogenesis: 24 hours. How it is done: Another cell adhesion assay evaluates the ability of a modulating agent to block angiogenesis (the growth of blood vessels from pre-existing blood vessels). This ability may be assayed using the chick chorioallantoic membrane assay described by Iruela-Arispe et al., Molecular Biology of the Cell 6:327-343, 1995. Briefly, a modulating agent may be embedded in a mesh composed of vitrogen at one or more concentrations (e.g., ranging from about 1 to 100 μg/mesh). The mesh(es) may then be applied to chick chorioallantoic membranes. After 24 hours, the effect of the peptide may be determined using computer assisted morphometric analysis. A modulating agent should inhibit angiogenesis by at least 25% at a concentration of 33 μg/mesh.
The chick chorioallantoic membrane assay was used to assess the effects of cyclic peptides on angiogenesis (Iruela-Arispe et al., Molecular Biology of the Cell 6:327-343, 1995). Cyclic peptides were embedded in a mesh composed of vitrogen at concentrations of 3, 17, and 33 μg/mesh. The meshes were then applied to 12-day-old chick embryonic chorioallantoic membranes. After 24 hours, the effects of the peptides on angiogenesis were assessed by computer assisted morphometric analysis.

Structures are written as SMILES. Like-named read-outs stand apart in the source and are kept apart here. Positions of bridges follow the written chain, without caps; N, C: chain ends. Residues, ends and D or L forms follow the SMILES beside them.

Consider `CC[C@H](C)[C@@H]1NC(=O)[C@H](CC(=O)O)NC(=O)[C@H](C(C)C)NC(=O)[C@H](C)NC(=O)[C@H](Cc2c[nH]cn2)NC(=O)[C@H](C)NC(=O)[C@@H](N)CSSC[C@@H](C(N)=O)NC1=O` (H-CAHAVDIC-NH2; disulfide 1-8), for which the IC50 in [1], in data set [2], in data set [3], in [4], in [5] and in data set [6] was above 100 µM throughout. Further, the IC50 in [7] and in data set [8] was above 100 µM throughout. In addition, the “inhibitory activity on N-cadherin dependent neurite outgrowth, structure/activity statements” value is “total loss of activity” in [9] (listed as H-CAHAVDIC-NH2) and “lost activity” in data set [9] (listed as compound 15). In addition, in data set [10], the inhibition (commonly the change of the read-out against control, counted positive when it falls) at 250 µg/mL was determined as 0%.
With `CC(=O)N[C@H]1CSSC[C@@H](C(N)=O)NC(=O)[C@H](CO)NC(=O)[C@H](CO)NC(=O)[C@H](C(C)C)NC(=O)CNC(=O)[C@H](Cc2c[nH]cn2)NC(=O)[C@H](CO)NC1=O` (Ac-CSHGVSSC-NH2; disulfide 1-8), the concentration for half-maximal inhibition (IC50) in data set [1], in data set [2], in data set [3], in data set [4], in data set [5] and in [6] was above 100 µM throughout. Besides, the IC50 in data set [7] and in data set [8] was above 100 µM in each case. In addition, the inhibition at 250 µg/mL in data set [10] is 0%.
With `CC(=O)N[C@H]1CSSC[C@@H](C(N)=O)NC(=O)[C@H](Cc2c[nH]cn2)NC(=O)[C@H](C)NC(=O)[C@H](C(C)C)NC1=O` [N—Ac—CVAHC—NH2] (Ac-CVAHC-NH2; disulfide 1-5), the “Percent Inhibition of Angiogenesis” value in data set [11] (3 μg/mesh, absence (−) of 0.01 mM VEGF) is −1%^; in data set [11] (3 μg/mesh, presence (+) of 0.01 mM VEGF), 7%; in data set [11] (17 μg/mesh, absence (−) of 0.01 mM VEGF) it was 13%; in data set [11] (17 μg/mesh, presence (+) of 0.01 mM VEGF), 24%; in data set [11] (33 μg/mesh, absence (−) of 0.01 mM VEGF) it was 12%; in [11] (33 μg/mesh, presence (+) of 0.01 mM VEGF), 25%. Also, the “inhibition of angiogenesis (in words)” value in data set [11] (3, 17 and 33 μg/mesh) was “relatively inactive”. For the same compound, the IC50 – broadly, the concentration at which inhibition is half-maximal – in data set [1] is above 100 µM; in data set [2], 8 µM; in data set [3], above 100 µM; in data set [4], above 100 µM; in data set [5], above 100 µM; in data set [6] it was above 100 µM. The IC50 in data set [7] and in [8] was above 100 µM throughout.
For the compound `CC[C@H](C)[C@@H]1NC(=O)[C@H](CC(=O)O)NC(=O)[C@H](C(C)C)NC(=O)CNC(=O)[C@H](Cc2c[nH]cn2)NC(=O)[C@H](C)NC(=O)[C@@H](N)CSSC[C@@H](C(N)=O)NC1=O` (H-CAHGVDIC-NH2; disulfide 1-8), the IC50 in data set [1], in [2], in [3], in data set [4], in data set [5] and in data set [6] was above 100 µM in each case. Moreover, the IC50 in data set [7] and in [8] was above 100 µM throughout. Moreover, in data set [10], the inhibition at 250 µg/mL was found to be 0%.
Take `CC(C)[C@@H]1NC(=O)[C@H](C)NC(=O)[C@H](Cc2c[nH]cn2)NC(=O)[C@H](C)NC(=O)[C@@H](N)CSSC[C@@H](C(N)=O)NC(=O)[C@H](CC(=O)O)NC1=O` [H—CAHAVDC—NH2, H-Cys-Ala-His-Ala-Val-Asp-Cys-NH2] (H-CAHAVDC-NH2; disulfide 1-7): the IC50 in data set [1], in data set [2], in [3], in data set [4], in [5] and in data set [6] was above 100 µM in each case. Besides, the concentration for half-maximal inhibition (IC50) in data set [7] and in data set [8] was above 100 µM throughout. Besides, the inhibition at 250 µg/mL in data set [10] is 0%.
For the compound `CC(=O)N[C@H]1CSSC[C@@H](C(N)=O)NC(=O)[C@H](C(C)C)NC(=O)CNC(=O)[C@H](Cc2c[nH]cn2)NC(=O)[C@H](CO)NC1=O` [N—Ac—CSHGVC—NH2] (Ac-CSHGVC-NH2; disulfide 1-6), the IC50 in [1], in [2], in [3], in data set [4], in [5] and in data set [6] was above 100 µM throughout. The IC50 in [7] and in data set [8] was above 100 µM throughout. The inhibition at 250 µg/mL in [10] came out at 0%.
Regarding `CC(C)[C@@H]1NC(=O)CNC(=O)[C@H](Cc2c[nH]cn2)NC(=O)[C@H](C)NC(=O)[C@@H](N)CSSC[C@@H](C(N)=O)NC(=O)[C@H](CC(=O)O)NC1=O` [H—CAHGVDC—NH2] (H-CAHGVDC-NH2; disulfide 1-7), the IC50 in data set [1], in data set [2], in data set [3], in data set [4], in data set [5] and in [6] was above 100 µM in each case. In addition, the IC50 in [7] and in [8] was above 100 µM in each case. Further, the inhibition at 250 µg/mL in data set [10] was found to be 0%.
Consider `CC(=O)N[C@H]1CSSC[C@@H](C(N)=O)NC(=O)[C@H](CO)NC(=O)[C@H](C(C)C)NC(=O)CNC(=O)[C@H](Cc2c[nH]cn2)NC1=O` [N—Ac—CHGVSC—NH2] (Ac-CHGVSC-NH2; disulfide 1-6), for which the IC50 was above 100 µM in [1]; 42 µM in data set [2]; above 100 µM in data set [3]; above 100 µM in data set [4]; above 100 µM in data set [5]; above 100 µM in data set [6]. The IC50 in [7] and in [8] was above 100 µM each time. Moreover, in data set [10], the inhibition at 250 µg/mL came to 0%.
